How the values were obtained:
[1] = system: HEK293 cells without GLP-1R (phosphoproteome); test: Phosphoproteomics, untransfected / mock-transfected control cells, 30 min; format: cell-based, human; conditions: mock transfection, 1 μM, vs vehicle
Protocol: P values were calculated by a two-sided unpaired t-test.
HEK293 cells (350,000 cells/mL) were transfected in suspension using 3 μg of linear PEI (MW 25,000) per 1 μg of plasmid DNA and seeded onto poly-D-lysine-coated 60 mm dishes at a density of 1,750,000 cells per dish. After a 24-h incubation, cells were washed twice with PBS and placed in starvation media (DMEM with penicillin/streptomycin). After a 48-h incubation, cells were washed twice with HBSS and maintained in the same buffer. […] Cell extracts were prepared as previously described[64]–[66]. In short, 200 μL of the lysis buffer preheated at 95 °C (4% sodium dodecyl sulfate in 50 mM Tris adjusted to pH 8.5) was added to the cells. The samples were then denatured at 95 °C for 10 min, placed on ice and then sonicated using a probe sonicator (3 sec on, 3 sec off pulse, 1 min, 30% amplitude) (Branson). Lysate protein concentration was determined using the Pierce bicinchoninic acid assay kit (Thermo Fisher Scientific) according to the manufacturer’s instructions. The lysates were reduced using 5 mM dithiothreitol for 1 h at room temperature and alkylated using 15 mM iodoacetamide for 1 h at room temperature in the dark. Proteins were precipitated and digested on beads using MagReSyn Amine magnetic beads (ReSyn Biosciences) according to the manufacturer’s instructions. Protein digestion was conducted overnight at 37 °C with lysyl endopeptidase (LysC, Wako) (1:150 LysC/protein, w/w) and trypsin (1:300 trypsin/protein, w/w). 20% TFA, 2 M glycolic acid in 80% ACN were added to the samples at a 1:1 ratio for phosphopeptide enrichment using MagReSyn TiO2 magnetic beads (ReSyn Biosciences) according to the manufacturer’s instructions. The enriched phosphopeptides were dried overnight in a SpeedVac, resuspended into 5% formic acid (FA), desalted using StageTip (Thermo Fisher Scientific) according to the manufacturer’s instructions and dried in a SpeedVac. The experiment was performed in biological triplicates.
All parameters and settings regarding the acquisition of the proteomics data can be found in Supplementary Data 11, 12. For data acquisition, the instrument was set to peptide mode, with a trapping pressure set as low (2mTorr). An EASY-Spray Source (Thermo Fisher Scientific) was used and the column temperature was maintained with the integrated, temperature-controlled heater at 55 °C throughout the experiment. For the data presented in Fig. 5d, the column was heated at 50 °C following the manufacturer’s instructions (IonOpticks).
Acquired raw files were converted to mzML format by MSConvert (version 3.0.21258)[67] applying peak picking of the mass spectra with the vendor-provided algorithm (Thermo Fisher Scientific). The mzML files were analyzed using the FragPipe GUI v18 for both library and DIA search. […] Trypsin with up to 2 missed cleavages was set as digestion enzyme, oxidation of methionine, acetylation of the N-terminus and phosphorylation on serine, threonine and tyrosine (maximal occurrence was set to three) were set as variable modifications. Carbamidomethylation of cysteine residues was set as a fixed modification. Peptide length was restricted to 7 to 50 amino acids, and 500 to 5000 Da. […] DIA files were analyzed by DIA-NN 1.8.1[71], [72] using the previously generated library and monitor-command mode. Peptide quantification was performed based on the fragment elution profiles from the MS2 level (area under the curve). […]

GLP-1R [2] = biological target: T1, GLP-1R (Homo sapiens, UniProt P43220); test: ebBRET pathway activation (15 pathways), Supplementary Fig. 14; compartment not given; format: cell-based
T1 sequence (P43220 24-463): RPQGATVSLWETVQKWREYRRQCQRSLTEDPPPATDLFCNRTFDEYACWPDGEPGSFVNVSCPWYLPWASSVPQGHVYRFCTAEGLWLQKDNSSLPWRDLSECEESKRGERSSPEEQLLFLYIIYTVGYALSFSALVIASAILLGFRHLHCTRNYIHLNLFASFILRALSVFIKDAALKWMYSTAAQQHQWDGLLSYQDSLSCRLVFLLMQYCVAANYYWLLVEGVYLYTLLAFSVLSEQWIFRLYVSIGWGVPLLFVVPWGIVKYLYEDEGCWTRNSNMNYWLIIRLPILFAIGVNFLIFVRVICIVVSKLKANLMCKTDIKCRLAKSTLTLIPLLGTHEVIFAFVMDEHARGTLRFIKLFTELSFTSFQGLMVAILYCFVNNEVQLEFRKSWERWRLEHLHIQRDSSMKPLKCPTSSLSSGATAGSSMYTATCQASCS

GLP-1R [3] = biological target: T1, GLP-1R; test: ebBRET pathway activation (15 pathways) at the endoplasmic reticulum (tdrGFP-PTP1B); format: cell-based; conditions: for Emax: Endoplasmic reticulum; for Efficacy (normalized) / Potency (logEC50): endoplasmic reticulum
Protocol: Subcellular resolution was achieved by using organelle-specific energy acceptors for early endosomes, the Golgi apparatus and the endoplasmic reticulum.
Data are represented as the mean ± SEM (n = 3 biologically independent experiments). EE early endosomes, GA Golgi apparatus, ER endoplasmic reticulum.
HEK293 cells were cultured in DMEM supplemented with 10% FBS, 1% penicillin/streptomycin, propagated in plastic flasks and grown at 37 °C in 5% CO2 and 90% humidity. […] After a 48-hour incubation, cells were washed once with HBSS and maintained in the same buffer.
Best fit values were excluded if EC50 was outside of the concentration range tested or if the span was negative. […] All further data processing was performed in R (version 4.2.1).
Pharmacological characterization of GLP-1R agonist signaling
profiles at the endoplasmic reticulum. a, Illustration depicting the ebBRET approach to
monitoring signaling at the endoplasmic reticulum. b, Concentration-response curves of GLP-1R
agonists across 15 pathways at the endoplasmic reticulum using tdrGFP-P TP1B. Data are
represented by the non-linear fit and sc aled according to the highest responding drug (n=3
biologically independent samples). Drug-s pecific polar area diagrams for efficacy (normalized
endoplasmic reticulum. Drugs were deemed to activate a given pathway after comparing
the top and bottom parameters from non-linear regression by one-sided extra sum-o f-
similarity index for efficacy (e) and potency (f) quantifies similarities and differences across drug
Drug- induced transducer engagement by GLP-1R at the
endoplasmic reticulum. Agonist concentration response curves for 15 transducers at the
endoplasmic reticulum. Drugs were deemed to activate a given pathway after comparing the top
and bottom parameters from non-linear regres sion by one-sided extra s um-o f-s quares F-t est
Data are represented as the
mean ± SEM (n=3 biologically independent samples). Sigmoidal dose-r esponse curves are
Polar area diagrams depict pathway activation at the endoplasmic
reticulum. Pathway-specific polar area diagrams for efficacy (normalized to the highest
were deemed to activate a given pathway after comparing the top and bottom parameters from
non-linear regression by one-sided extra sum-o f-s quares F-t est followed by Bonferroni

Compound: N#Cc1ccc(COc2cccc(C3CCN(Cc4nc5ccc(C(=O)O)cc5n4C[C@@H]4CCO4)CC3)n2)c(F)c1 [Danuglipron]
- log2.foldchange, EIF3J S11 ([1]; p 0.0145494, n = 3): -0.5603
- log2.foldchange, VPS51 S18 (peptide ...EAPER) ([1]; p 0.168261, n = 3): -0.2294
- log2.foldchange, VPS51 S18 (peptide ...EAPERR) ([1]; p 0.181448, n = 3): 0.6501
- log2.foldchange, VPS51 S10 ([1]; p 0.364227, n = 3): 0.2093
- log2.foldchange, PABPN1 S19 ([1]; p 0.447985, n = 3): 0.07218
- Efficacy (normalized), GRK2/Gβγ (GLP-1R [2]; GRK2/Gβγ, Supplementary Fig. 14a, normalized): 0
- Efficacy (normalized), Gα11 (GLP-1R [2]; Gα11, Supplementary Fig. 14a, normalized): 0
- Potency (logEC50), Gα11 (GLP-1R [2]; Gα11, Supplementary Fig. 14b): 0
- Efficacy (normalized), Gα12 (GLP-1R [2]; Gα12, Supplementary Fig. 14a, normalized): 0
- Potency (logEC50), Gα12 (GLP-1R [2]; Gα12, Supplementary Fig. 14b): 0
- Efficacy (normalized), Gα13 (GLP-1R [2]; Gα13, Supplementary Fig. 14a, normalized): 0
- Potency (logEC50), Gα13 (GLP-1R [2]; Gα13, Supplementary Fig. 14b): 0
- Efficacy (normalized), Gα14 (GLP-1R [2]; Gα14, Supplementary Fig. 14a, normalized): 0
- Potency (logEC50), Gα14 (GLP-1R [2]; Gα14, Supplementary Fig. 14b): 0
- Efficacy (normalized), Gα15 (GLP-1R [2]; Gα15, Supplementary Fig. 14a, normalized): 0
- Potency (logEC50), Gα15 (GLP-1R [2]; Gα15, Supplementary Fig. 14b): 0
- Efficacy (normalized), Gαi1 (GLP-1R [2]; Gαi1, Supplementary Fig. 14a, normalized): 0
- Potency (logEC50), Gαi1 (GLP-1R [2]; Gαi1, Supplementary Fig. 14b): 0
- Efficacy (normalized), Gαi2 (GLP-1R [2]; Gαi2, Supplementary Fig. 14a, normalized): 0
- Potency (logEC50), Gαi2 (GLP-1R [2]; Gαi2, Supplementary Fig. 14b): 0
- Efficacy (normalized), Gαi3 (GLP-1R [2]; Gαi3, Supplementary Fig. 14a, normalized): 0
- Potency (logEC50), Gαi3 (GLP-1R [2]; Gαi3, Supplementary Fig. 14b): 0
- Efficacy (normalized), GαoA (GLP-1R [2]; GαoA, Supplementary Fig. 14a, normalized): 0
- Potency (logEC50), GαoA (GLP-1R [2]; GαoA, Supplementary Fig. 14b): 0
- Efficacy (normalized), GαoB (GLP-1R [2]; GαoB, Supplementary Fig. 14a, normalized): 0
- Potency (logEC50), GαoB (GLP-1R [2]; GαoB, Supplementary Fig. 14b): 0
- Efficacy (normalized), Gαq (GLP-1R [2]; Gαq, Supplementary Fig. 14a, normalized): 0
- Potency (logEC50), Gαq (GLP-1R [2]; Gαq, Supplementary Fig. 14b): 0
- Efficacy (normalized), Gαs (GLP-1R [2]; Gαs, Supplementary Fig. 14a, normalized): 0.8077
- Potency (logEC50), Gαs (GLP-1R [2]; Gαs, Supplementary Fig. 14b): 0.7638
- Efficacy (normalized), Gαz (GLP-1R [2]; Gαz, Supplementary Fig. 14a, normalized): 1
- Potency (logEC50), Gαz (GLP-1R [2]; Gαz, Supplementary Fig. 14b): 0.517
- Efficacy (normalized), βARR2 (GLP-1R [2]; βARR2, Supplementary Fig. 14a, normalized): 0.4942
- Potency (logEC50), βARR2 (GLP-1R [2]; βARR2, Supplementary Fig. 14b): 0.4339
- Emax (GLP-1R [3]; GRK/Gβγ): 0.1421
- Emax (GLP-1R [3]; Gα11): 0
- Emax (GLP-1R [3]; Gα12): 0
- Emax (GLP-1R [3]; Gα13): 0
- Emax (GLP-1R [3]; Gα14): 0
- Emax (GLP-1R [3]; Gα15): 0
- Emax (GLP-1R [3]; Gαi1): 0
- Emax (GLP-1R [3]; Gαi2): 0
- Emax (GLP-1R [3]; Gαi3): 0
- Emax (GLP-1R [3]; GαoA): 0
- Emax (GLP-1R [3]; GαoB): 0
- Emax (GLP-1R [3]; Gαq): 0
- Emax (GLP-1R [3]; Gαs): 0.2391
- Emax (GLP-1R [3]; Gαz): 0
- Emax (GLP-1R [3]; βARR): 0.08276
- mGs recruitment at the endoplasmic reticulum, in words (GLP-1R [3]; Rluc8-mGs, tdrGFP-PTP1B, 60 min, n = 3): the only drug capable of recruiting mGs to the endoplasmic reticulum
- Efficacy (normalized) (GLP-1R [3]; GRK2/Gβγ, Supplementary Fig. 15c): 0.6257
- Efficacy (normalized) (GLP-1R [3]; Gα11, Supplementary Fig. 15c): 0
- Potency (logEC50) (GLP-1R [3]; Gα11, Supplementary Fig. 15d): 0
- Efficacy (normalized) (GLP-1R [3]; Gα12, Supplementary Fig. 15c): 0
- Potency (logEC50) (GLP-1R [3]; Gα12, Supplementary Fig. 15d): 0
- Efficacy (normalized) (GLP-1R [3]; Gα13, Supplementary Fig. 15c): 0
- Potency (logEC50) (GLP-1R [3]; Gα13, Supplementary Fig. 15d): 0
- Efficacy (normalized) (GLP-1R [3]; Gα14, Supplementary Fig. 15c): 0
- Potency (logEC50) (GLP-1R [3]; Gα14, Supplementary Fig. 15d): 0
- Efficacy (normalized) (GLP-1R [3]; Gα15, Supplementary Fig. 15c): 0
- Potency (logEC50) (GLP-1R [3]; Gα15, Supplementary Fig. 15d): 0
- Efficacy (normalized) (GLP-1R [3]; Gαi1, Supplementary Fig. 15c): 0
- Potency (logEC50) (GLP-1R [3]; Gαi1, Supplementary Fig. 15d): 0
- Efficacy (normalized) (GLP-1R [3]; Gαi2, Supplementary Fig. 15c): 0
- Potency (logEC50) (GLP-1R [3]; Gαi2, Supplementary Fig. 15d): 0
- Efficacy (normalized) (GLP-1R [3]; Gαi3, Supplementary Fig. 15c): 0
- Potency (logEC50) (GLP-1R [3]; Gαi3, Supplementary Fig. 15d): 0
- Efficacy (normalized) (GLP-1R [3]; GαoA, Supplementary Fig. 15c): 0
- Potency (logEC50) (GLP-1R [3]; GαoA, Supplementary Fig. 15d): 0
- Efficacy (normalized) (GLP-1R [3]; GαoB, Supplementary Fig. 15c): 0
- Potency (logEC50) (GLP-1R [3]; GαoB, Supplementary Fig. 15d): 0
- Efficacy (normalized) (GLP-1R [3]; Gαq, Supplementary Fig. 15c): 0
- Potency (logEC50) (GLP-1R [3]; Gαq, Supplementary Fig. 15d): 0
- Efficacy (normalized) (GLP-1R [3]; Gαs, Supplementary Fig. 15c): 1
- Potency (logEC50) (GLP-1R [3]; Gαs, Supplementary Fig. 15d): 0.2956
- Efficacy (normalized) (GLP-1R [3]; Gαz, Supplementary Fig. 15c): 0
- Potency (logEC50) (GLP-1R [3]; Gαz, Supplementary Fig. 15d): 0
- Efficacy (normalized) (GLP-1R [3]; βARR2, Supplementary Fig. 15c): 0.2909
- Potency (logEC50) (GLP-1R [3]; βARR2, Supplementary Fig. 15d): 0.3992
